Literature values as cited in patent US10864304B2, “Anti-infective antimicrobial-containing biomaterials” (ATRIUM MEDICAL CORPORATION, priority 2009, dated 2020).

Test system: bacteria
Settings: previously reported (K. C. Chaw et al. 2005)

Q: Which “amount of silver needed to produce an antimicrobial effect” value does the source give for `[Ag]` [silver] here?
A: ~50 ppb
